Test results taken from patent publication US20240000950A1, “THERAPEUTIC CURE-PRO COMPOUNDS FOR TARGETED DEGRADATION OF BET DOMAIN PROTEINS, AND METHODS OF MAKING AND USING THEM” (CORNELL UNIVERSITY, priority 2020, published 2024).

Target: BRD4 (Homo sapiens, UniProt O60885)
Assay: Summary of E3 ligase directed degradation of BRD4, estimated from Western Blot or WES (Tables 1-6)
Type: cell-based
Design: endogenous in cells; host or cells: HeLa, MCF7 or HCT116
Settings: for Degradation of BRD4, combination with VHL ligand [drawing 442]: aromatic 1,2-diol-containing VHL ligand drawn as drawing 442 (by the text apparently 8305); for Degradation of BRD4, combination with CRBN ligand [drawing 421] / Degradation of BRD4, combination with CRBN ligand [drawing 422] / Degradation of BRD4, combination with CRBN ligand [drawing 397]: Table 1; for Degradation of BRD4, combination with CRBN ligand [drawing 421]: CRBN ligand drawn as drawing 421 (by the text apparently 8047); for Degradation of BRD4, combination with CRBN ligand [drawing 422]: CRBN ligand drawn as drawing 422 (by the text apparently 8066); for Degradation of BRD4, combination with CRBN ligand [drawing 397]: aromatic 1,2-diol- or hindered cis-1,2-diol-containing CRBN ligand drawn as drawing 397 (by the text apparently 8046)
Description: HeLa, MCF7, or HCT116 cells (2.5-3×10^6) were treated for 24 hours with the indicated compounds solubilized in DMSO. The cells were washed in ice-cold PBS and were then lysed in RIPA lysis buffer (150 mM NaCl, 5 mM EDTA, 1% NP-40, 0.5% sodium deoxycholate, 0.1% SDS, 50 mM Tris, pH 8.0) with Roche protease inhibitor complete cocktail and phosphatase inhibitors (10 mM sodium fluoride, 10 mM sodium pyrophosphate, 1 mM sodium orthovanadate and 20 mM β-glycerophosphate). The total protein concentrations were determined by Bradford Protein Assay and 10-20 μg of protein was loaded onto 4-15% Tris-Glycine gradient gels (Biorad). After standard gel electrophoresis, the separated proteins were transferred to PVDF membrane by wet transfer. The immunoblots were then blocked for 1 hour in 5% skim milk in TBST or 5% BSA in TBST, according to manufacturer's instructions, before an overnight incubation at 4° C. with indicated antibodies and membranes. Membranes were then incubated with the appropriate horseradish peroxidase-conjugated secondary antibodies (1:5,000 dilution) for 1 h at room temperature and the bands were visualized using the Clarity Max Western ECL Substrate (Biorad) and the ChemiDoc Imaging System (Biorad). Signal was detected with ECL Western Blotting Substrate (Pierce) and X-ray film processed with a Konica SRX-101 X-ray film processor or captured by Bio-Rad's Chemidoc Imaging system.
WES Simple analysis was performed on WES system (ProteinSimple-Biotechne) according to the manufacturer's instructions. Total protein concentrations of cell lysates were determined by the Pierce BCA kit (Thermo Fisher). 3 μL of 0.3 μg/uL of the protein lysate was loaded onto a 12- to 230-kDa WES assay plate (ProteinSimple) where 300 nL sample was withdrawn through a capillary, subjected to electrophoretic separation of proteins by size, and followed by the simultaneous, HRP-based detection of proteins using the Anti-Rabbit Detection Module (Proteinsimple: #DM-001). The electropherograms were checked then the automatic peak detection was manually corrected if it was required.
A black check mark indicates efficacy of 30% to 70% or higher protein degradation.

| Structure (SMILES) | Degradation of BRD4, combination with VHL ligand [drawing 442] (Table 3) | Degradation of BRD4, combination with CRBN ligand [drawing 421] | Degradation of BRD4, combination with CRBN ligand [drawing 422] | also measured |
| --- | --- | --- | --- | --- |
| COc1ccc2c(c1)C(c1ccc(Cl)cc1)=N[C@@H](CC(=O)NCCNC(=O)c1cccc(B(O)O)c1)c1nnc(C)n1-2 [BRD-E02] | ✓ (A black check mark indicates efficacy of 30% to 70% or higher protein degradation) | – | – | – |
| COc1ccc2c(c1)C(c1ccc(Cl)cc1)=N[C@@H](CC(=O)NCCCNC(=O)c1cccc(B(O)O)c1)c1nnc(C)n1-2 [BRD-E04] | – | ✓ (A black check mark indicates efficacy of 30% to 70% or higher protein degradation) | ✓ (A black check mark indicates efficacy of 30% to 70% or higher protein degradation) | Degradation of BRD4, combination with CRBN ligand [drawing 397]: ✓ (A black check mark indicates efficacy of 30% to 70% or higher protein degradation) |
| COc1ccc2c(c1)C(c1ccc(Cl)cc1)=N[C@@H](CC(=O)NCCCCNC(=O)c1ccc(B(O)O)cc1)c1nnc(C)n1-2 [BRD-E05] | – | ✓ (A black check mark indicates efficacy of 30% to 70% or higher protein degradation) | ✓ (A black check mark indicates efficacy of 30% to 70% or higher protein degradation) | – |
| COc1ccc2c(c1)C(c1ccc(Cl)cc1)=N[C@@H](CC(=O)NCCCCCNC(=O)c1ccc(B(O)O)cc1)c1nnc(C)n1-2 [BRD-E07] | – | – | ✓ (A black check mark indicates efficacy of 30% to 70% or higher protein degradation) | – |
| COc1ccc2c(c1)C(c1ccc(Cl)cc1)=N[C@@H](CC(=O)NCc1ccc(B(O)O)cc1)c1nnc(C)n1-2 [BRD-E09, (4-((2-((4S)-6-(4-chlorophenyl)-8-methoxy-1-methyl-4H-benzo[f][1,2,4]triazolo[4,3-a][1,4]diazepin-4-yl)acetamido)methyl)phenyl)boronic acid] | ✓ (A black check mark indicates efficacy of 30% to 70% or higher protein degradation) | ✓ (A black check mark indicates efficacy of 30% to 70% or higher protein degradation) | – | – |
| COc1ccc2c(c1)C(c1ccc(Cl)cc1)=N[C@@H](CC(=O)NCc1cccc(B(O)O)c1)c1nnc(C)n1-2 [BRD-E10] | – | ✓ (A black check mark indicates efficacy of 30% to 70% or higher protein degradation) | – | Degradation of BRD4, combination with CRBN ligand [drawing 397]: ✓ (A black check mark indicates efficacy of 30% to 70% or higher protein degradation); Degradation of BRD4, combination with VHL ligand [drawing 441] (Table 3, aromatic 1,2-diol-containing VHL ligand drawn as drawing 441 (by the text apparently 8304)): ✓ (A black check mark indicates efficacy of 30% to 70% or higher protein degradation) |
| COc1ccc2c(c1)C(c1ccc(Cl)cc1)=N[C@@H](CC(=O)NCCc1ccc(B(O)O)cc1)c1nnc(C)n1-2 [BRD-E14, (4-(2-(2-((4S)-6-(4-chlorophenyl)-8-methoxy-1-methyl-4H-benzo[f][1,2,4]triazolo[4,3-a][1,4]diazepin-4-yl)acetamido)ethyl)phenyl)boronic acid] | ✓ (A black check mark indicates efficacy of 30% to 70% or higher protein degradation) | ✓ (A black check mark indicates efficacy of 30% to 70% or higher protein degradation) | – | Degradation of BRD4, combination with MDM2 ligand [drawing 431] (Table 2, aromatic 1,2-diol-containing MDM2 ligand drawn as drawing 431 (by the text apparently 8314)): ✓ (A black check mark indicates efficacy of 30% to 70% or higher protein degradation) |
| COc1ccc2c(c1)C(c1ccc(Cl)cc1)=N[C@@H](CC(=O)NCCNC(=O)Cc1ccc(B(O)O)cc1)c1nnc(C)n1-2 [BRD-E27, (4-(2-((2-(2-((4S)-6-(4-chlorophenyl)-8-methoxy-1-methyl-4H-benzo[f][1,2,4]triazolo[4,3-a][1,4]diazepin-4-yl)acetamido)ethyl)amino)-2-oxoethyl)phenyl)boronic acid] | – | ✓ (A black check mark indicates efficacy of 30% to 70% or higher protein degradation) | – | – |
| COc1ccc2c(c1)C(c1ccc(Cl)cc1)=N[C@@H](CC(=O)NCCNC(=O)Cc1cccc(B(O)O)c1)c1nnc(C)n1-2 [BRD-E38] | – | ✓ (A black check mark indicates efficacy of 30% to 70% or higher protein degradation) | – | – |
